Data from publication PMC4014704, “β-Boomerang Antimicrobial and Antiendotoxic Peptides: Lipidation and Disulfide Bond Effects on Activity and Structure” (Pharmaceuticals, 2014).
Peptide text beside a SMILES is read from it.

Tests used:
[1] = aqueous solution for NMR
Description: (§1) In addition, incorporation of disulfide bridges in AMPs may stabilize conformations and enhance cationicity and hydrophobicity required for enhanced activity. […] Residue Ile10 was chosen for Cys replacement since this residue is located at the exposed face of the β-strand of the YI12WF structure (Figure 1).
The solution conformations of YI13C, C4YI13C peptides were examined in free solution using two-dimensional ^1H-^1H NOESY and TOCSY experiments.

[2] = tested on: E. coli cells; experiment: Zeta potential measurements; assay type: cell-based; settings: increasing peptide concentrations, E. coli cells
Procedure: Zeta potential measurements: The zeta potential measurements were carried out on a Zetasizer Nano ZS (Malvern Instruments, Worcestershire, UK) equipped with a 633 nm He lasers. Mid-log phase grown bacterial cells were diluted to an OD600 of 0.2 and a basal measurement in the absence of peptides was acquired in disposable zeta cells with gold electrodes. Increasing concentrations of the designed peptides were then added to the cells and the measurements were made. A total of five measurements of 100 runs each were carried out for all dilutions.

[3] = tested on: LPS micelles; experiment: Dynamic light scattering of LPS micelles; set-up: species or system E. coli 0111:B4; settings: DLS, 0.5 μM LPS, LPS:peptide 1:4; LPS alone 814 nm
Procedure: Dynamic light scattering measurements: LPS forms micelles of large sizes, which with the addition of increasing concentration of peptides, dissociates to smaller sizes. DLS measurements were made for 0.5 μM LPS and then with LPS: Peptide ratios of 1:2 and 1:4. The scattering was measured with Dynamic Light Scattering software provided with the instrument (Brookhaven Instruments Corp., Holtsville, NY, USA) and the scattering data was analyzed with CONTIN method.

[4] = tested on: FITC-LPS micelles; experiment: Dissociation of FITC-LPS; set-up: species or system E. coli 055:B5; settings: 500 nM FITC-LPS, increasing peptide, excitation 480 nm, emission 515 nm
Procedure: Dissociation of FITC-LPS: LPS molecules form micellar aggregates in water. The competency of the peptides to dissociate LPS micelles were studied using FITC conjugated LPS. In this method, blank fluorescence of 500 nM of FITC-LPS was recorded followed by the addition of increasing concentrations of peptides. The excitation was set at 480 nm and emission at 500–550 nm.

[5] = Reverse phase HPLC retention time (hydrophobicity); assay type: physicochemical; set-up: unit not given beside the values; settings: C18 column (300 Å pore size, 5 μm particle size), linear gradient acetonitrile/water, higher Rt taken as more hydrophobic
Description: Materials: LPS of E. coli 0111:B4, FITC-LPS of E. coli 055:B5, acrylamide, NPN (1-N-phenylnaphthylamine) were purchased from Sigma (Saint Louis, MO, USA). All bacterial strains were obtained from the American Type Culture Collection (Manassas, VA, USA). Designed peptides were synthesized commercially by GL Biochem (Shanghai, China) and further purified by a reverse phase HPLC (Waters), using a C18 column (300 Å pore size, 5 μm particle size). The dimeric variants of β-boomerang lipopeptides were treated with 20% DMSO for 18 hours and the oxidized peptides were further purified by HPLC. A linear gradient of acetonitrile/water mixture was used for the purification and fractions eluting with higher purity were collected and freeze-dried.
as §1

[6] = tested on: outer membrane of E. coli cells; experiment: Outer membrane permeability assay (NPN dye); assay type: cell-based; settings: E. coli OD600 0.5, 10 μM NPN
Procedure: Outer membrane permeability assay: Outer membrane of Gram bacteria acts as permeability barrier for hydrophobic antibacterial compounds. […] E. coli cells were grown to mid logarithmic phase and diluted to an OD600nm of 0.5 in 10 mM sodium phosphate buffer, pH 7.0. The excitation was set at 350 nm and emission at 390–450 nm. NPN was added to the diluted cells at the concentration of 10 μM and a basal fluorescence was recorded followed by the addition of increasing concentration of peptides.

[7] = tested on: LPS micelles; experiment: Isothermal titration calorimetry; assay type: binding, E. coli 0111:B4; settings: lack of saturation
Procedure: Isothermal titration calorimetry: Binding of designed peptides with LPS micelles was determined using isothermal titration calorimetry in VP-ITC micro calorimeter (Microcal Inc, Northampton, MA, USA). Peptides and LPS samples were dissolved in 10 mM phosphate buffer, pH 7.0 and filtered. LPS at a concentration of 10 μM was loaded into the sample cell and the reference cell was filled with the same buffer. The syringe was filled with 1mM peptide solution. Typically 30 injections of 3.5 μL of the peptides were made into the sample cell at 25 °C. Sample cell was stirred continuously at 300 rpm. Raw data were obtained and analyzed using single site binding model in Microcal Origin 5.0 software. Association constant (Ka) and enthalpy change (ΔH) were directly determined from ITC profiles. Dissociation constant was calculated from Kd = 1/Ka. ΔG and TΔS were estimated from the fundamental equations of thermodynamics, ΔG = −RTlnKa and TΔS = (ΔH − ΔG), respectively.

## CCCCCCCC(=O)N[C@@H](Cc1ccc(O)cc1)C(=O)N[C@H](C(=O)N[C@@H](CC(C)C)C(=O)N[C@@H](C)C(=O)N[C@@H](CCCCN)C(=O)N[C@@H](CCCNC(=N)N)C(=O)N[C@@H](CCCCN)C(=O)N[C@@H](CCCNC(=N)N)C(=O)N[C@@H](CCCCN)C(=O)N[C@@H](C)C(=O)N[C@@H](CSSC[C@H](NC(=O)[C@H](C)NC(=O)[C@H](CCCCN)NC(=O)[C@H](CCCNC(=N)N)NC(=O)[C@H](CCCCN)NC(=O)[C@H](CCCNC(=N)N)NC(=O)[C@H](CCCCN)NC(=O)[C@H](C)NC(=O)[C@H](CC(C)C)NC(=O)[C@@H](NC(=O)[C@H](Cc1ccc(O)cc1)NC(=O)CCCCCCC)C(C)C)C(=O)N[C@@H](Cc1ccccc1)C(=O)N[C@H](C(N)=O)[C@@H](C)CC)C(=O)N[C@@H](Cc1ccccc1)C(=O)N[C@H](C(N)=O)[C@@H](C)CC)C(C)C [C8YI13CAA] (HELM PEPTIDE1{[CCCCCCCC(=O)[*:2]].Y.V.L.A.K.R.K.R.K.A.C.F.I.[am]}|PEPTIDE2{[CCCCCCCC(=O)[*:2]].Y.V.L.A.K.R.K.R.K.A.C.F.I.[am]}$PEPTIDE1,PEPTIDE2,12:R3-12:R3$$$V2.0; N-terminus and C-terminus assumed)
[1]
  Solubility for NMR studies (in words): limited solubility
[2]
  Change in zeta potential (in words): did not show any detectable change in zeta potential
[3]
  Diameter of LPS aggregates: 630 nm
[4]
  FITC fluorescence intensity / dissociation of FITC-LPS (in words): remained unchanged
[5]
  Retention time (Rt): 32.38
[6]
  NPN fluorescence intensity with increasing peptide (in words): no marked increase in intensity
[7]
  Interaction with LPS by ITC (in words): interacted weakly with LPS
